In patent US8476449B2, “Radioactive iodine labeled organic compound or salt thereof” (Nihon Medi-Physics Co., Ltd., priority 2010, dated 2013):

Legend:
[1] = test system: human brain neurofibrillary tangles; assay: Fluorescent staining of Alzheimer's disease patient brain slice (binding to human brain neurofibrillary tangles); details: 200 μmol/L, 1 hour
Experimental: A fluorescent staining experiment with compound 3 using an Alzheimer's disease patient brain slice was carried out in order to evaluate binding to human brain neurofibrillary tangles. A postmortem brain slice (paraffin-embedded slice) of an Alzheimer's disease patient purchased from BioChain was washed with xylene (5 minutes×twice), ethanol, ethanol, a 95 vol % ethanol aqueous solution, an 85 volt ethanol aqueous solution, and a 70 vol % ethanol aqueous solution (1 minute×once) to thus carry out deparaffinization. Subsequently, it was treated in sequence with a 0.3 wt % potassium permanganate aqueous solution (20 minutes×once), PBS (phosphoric acid buffer physiological saline) (2 minutes×twice), a 1 wt % potassium metabisulfite aqueous solution/1 wt % oxalic acid aqueous solution (1 minute×once), PBS (2 minutes×twice), a 1 wt % sodium borohydride aqueous solution (5 minutes×once), and PBS (2 minutes×twice) in order to remove self-fluorescence of the slice. Blocking using 3 wt % BSA-containing PBS/0.1 wt % tritonX100-containing PBS was carried out for 3 hours. Then, a test compound (200 μmol/L/50 vol % ethanol aqueous solution) and the slice were incubated for 1 hour. The slice was washed with 50 vol % ethanol, and examined using a fluorescence microscope. Furthermore, the same slice was stained using thioflavin S (0.125 wt %, 50 vol % ethanol aqueous solution) for 10 minutes. […]

tau protein aggregate [2] = target: T1, tau protein aggregate (Homo sapiens, UniProt P10636); assay: Inhibition constant toward tau protein aggregate (thioflavin S competition); type: binding; set-up: made in house; host or cells: E. coli BL21
Experimental: (§1) First, the dissociation constant (Kd) of thioflavin S used as a competitive ligand was first determined by a saturation experiment in order to calculate inhibition constants of compounds 1 to 3. That is, a mixed solution of a 10 vol % ethanol aqueous solution of thioflavin S (0.1-12.8 μmol/L) and the tau protein aggregate (final concentration 0.2 μmol/L, prepared in Example 9) or the Aβ42 aggregate (final concentration 2.2 μmol/L, prepared in Example 11) was incubated for 30 minutes, and the fluorescence intensity was measured using a fluorescence plate reader (FLEX STATION, Molecular Devices). The fluorescence intensity was measured at Ex 440 nm and Em 510 nm for the tau protein aggregate and Ex 440 nm and Em 490 nm for the Aβ42 aggregate. A saturation curve was prepared using GraphPad Prism, and the Kd value for thioflavin S was calculated.
(§2) Next, a mixed solution of a 10 volt ethanol aqueous solution of thioflavin S (1.5 μmol/L) and a test compound (0.6 nmol/L to 10 μmol/L) together with the tau protein aggregate (final concentration 0.2 μmol/L, prepared in Example 9) or the Aβ42 aggregate (final concentration 10 μg/ml, prepared in Example 11) was incubated for 30 minutes. Then, the fluorescence intensities at Ex 440 nm and Em 510 nm for the tau protein aggregate and Ex 440 nm and Em 490 nm for the Aβ42 aggregate were measured using a fluorescence plate reader (FLEX STATION, Molecular Devices). GraphPad Prism inhibition curves were prepared, and Ki values of compounds 1 to 3 were determined using the above obtained Kd value of thioflavin S.

tau protein aggregate [3] = target: T1, tau protein aggregate; assay: Competitive inhibition experiment using thioflavin S (ThS) as ligand, fluorescence spectra; type: binding; set-up: made in house; host or cells: E. coli BL21; details: tau protein aggregate 0.2 μmol/L, thioflavin S 1.5 μmol/L, compound 0.1-2.7 μmol/L, excitation 440 nm
Experimental: Tau-441 expression vector (provided by Graduate School of Medicine, Osaka City University) was transferred to E. coli (BL21), culturing was carried out, and a tau protein was extracted and purified. Heparin (0.1 mg/mL) was added to the purified tau protein (1 mg/mL), and incubation in a 50 mmol/L MES buffer (pH 6.8, 100 mmol/L sodium chloride, 0.5 mmol/L EGTA) at 37° C. was carried out for 3 days, thus preparing an aggregate. Formation of the tau protein aggregate was confirmed by SDS-PAGE and thioflavin S fluorescence assay.
A mixed solution (550 μL) of the tau protein aggregate (final concentration […]) thus prepared, thioflavin S (Sigma Aldrich, final concentration 1.5 μmol/L), and compound 1, compound 2, or compound 3 solution at various concentrations (each having final concentrations of 0 to 2.7 μmol/L) was incubated for 30 minutes, and fluorescence spectra at an excitation wavelength of 440 nm were measured using a fluorescence spectrometer (RF-5300PC, Shimadzu Corporation).
In FIGS. 3 to 5, a is a fluorescence spectrum of a sample (sample I) containing only thioflavin S at 1.5 μmol/L, and b is a fluorescence spectrum of a sample (sample II) that is 0.2 μmol/L of the tau protein aggregate in sample I. In FIG. 3, c is a fluorescence spectrum of a sample that is 0.1 μmol/L of compound 1 in sample II, d is a fluorescence spectrum of a sample that is 0.3 μmol/L of compound 1 in sample II, e is a fluorescence spectrum of a sample that is 0.9 μmol/L of compound 1 in sample II, and f is a fluorescence spectrum of a sample that is 2.7 μmol/L of compound 1 in sample II. In FIG. 4, c is a fluorescence spectrum of a sample that is 0.1 μmol/L of compound 2 in sample II, d is a fluorescence spectrum of a sample that is 0.3 μmol/L of compound 2 in sample II, e is a fluorescence spectrum of a sample that is 0.9 μmol/L of compound 2 in sample II, and f is a fluorescence spectrum of a sample that is 2.7 μmol/L of compound 2 in sample II. […]

Aβ42 aggregate = target: T2, Aβ42 aggregate (Homo sapiens, UniProt P05067); assay: Inhibition constant toward Aβ42 aggregate (thioflavin S competition); type: binding; details: thioflavin S as ligand, read-out: Ki values (Aβ42 in Table 5)
T2 construct: Aβ (1-42) peptide; purchased Peptide Institute, Inc
Experimental: as §1, §2

T1 sequence (P10636 1-441 isoform P10636-8): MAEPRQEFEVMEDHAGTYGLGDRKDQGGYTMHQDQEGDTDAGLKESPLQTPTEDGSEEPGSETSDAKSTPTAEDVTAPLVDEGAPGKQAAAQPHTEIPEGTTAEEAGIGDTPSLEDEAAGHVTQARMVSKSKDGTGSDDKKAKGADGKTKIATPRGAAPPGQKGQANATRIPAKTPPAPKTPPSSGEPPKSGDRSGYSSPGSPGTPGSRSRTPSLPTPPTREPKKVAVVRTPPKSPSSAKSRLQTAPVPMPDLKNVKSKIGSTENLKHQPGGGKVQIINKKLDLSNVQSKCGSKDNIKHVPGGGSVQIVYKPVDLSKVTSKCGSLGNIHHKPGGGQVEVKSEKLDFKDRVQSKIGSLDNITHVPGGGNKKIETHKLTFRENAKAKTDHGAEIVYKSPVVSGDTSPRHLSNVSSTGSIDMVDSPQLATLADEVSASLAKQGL
T2 sequence (P05067 672-713 limits assumed): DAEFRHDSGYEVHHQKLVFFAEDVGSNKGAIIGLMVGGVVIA

Fluorescent staining of brain slice vs AT8 immunostaining [1]: Prominent fluorescence accumulation | Ki ratios of Aβ42/Tau (tau protein aggregate [2]; ratio of Ki Aβ42 aggregate to Ki tau protein aggregate): 7.33 | Ki (tau protein aggregate [2]; thioflavin S as ligand, tau protein aggregate, read-out: Ki values (Tau in Table 5)): 0.064 µM | Ki (Aβ42 aggregate): 0.469 µM
Compound: O=C1/C(=C/c2ccc(-c3cccc(I)c3)o2)NC(=S)N1CCc1c[nH]cn1 [Compound 3, (Z)-3-(2-(1H-imidazol-4-yl)ethyl)-5-((5-(3-iodophenyl)furan-2-yl)methylene)-2-thioxoimidazolidin-4-one]
Inhibition of binding of tau protein aggregate to thioflavin S (fluorescence spectra) (tau protein aggregate [3]): inhibition of binding of a tau protein aggregate to thioflavin S
